Data taken from ChEMBL document CHEMBL1124693, “Synthesis of the novel pi-(benzyloxymethyl)-protected histidine analogue of statine. Inhibition of penicillopepsin by pepstatin-derived peptides containing different statine side-chain derivatives” (J Med Chem, 1989).
pKi: −log10 of the molar value.

test system: Penicillopepsin (Penicillium janthinellum); assay: Inhibitory activity against pencillopepsin

| Compound | pKi |
| --- | --- |
| CCOC(=O)C[C@H](O)[C@H](Cc1ccccc1)NC(=O)[C@@H](NC(=O)[C@@H](NC(=O)CC(C)C)C(C)C)C(C)C | 7.82 |
| CCOC(=O)C[C@H](O)[C@H](CC(C)C)NC(=O)[C@@H](NC(=O)[C@@H](NC(=O)CC(C)C)C(C)C)C(C)C | 7.14 |
| CCOC(=O)C[C@H](O)[C@H](CCCN)NC(=O)[C@@H](NC(=O)[C@@H](NC(=O)CC(C)C)C(C)C)C(C)C | 8.96 |
| CCOC(=O)C[C@H](O)[C@H](CC(C)C)NC(=O)[C@H](NC(=O)[C@@H](NC(=O)CC(C)C)C(C)C)C(C)C | < 4.74 |
| COC(=O)C[C@H](O)[C@H](Cc1c[nH]cn1)NC(=O)[C@@H](NC(=O)[C@@H](NC(=O)CC(C)C)C(C)C)C(C)C | 8.35 |

test system: Penicillopepsin (Penicillium janthinellum); assay: Slow binding kinetics after pre-incubation of enzyme and inhibitor for 10 min before substrate addition;+ indicates weak inhibition of penicillopepsin.

| Compound | Slow binding |
| --- | --- |
| COC(=O)C[C@H](O)[C@H](Cc1c[nH]cn1)NC(=O)[C@@H](NC(=O)[C@@H](NC(=O)CC(C)C)C(C)C)C(C)C | weak inhibition of porcine pepsin |
